Data: paper PMC8231556, “Inhibiting Endothelial Cell Function in Normal and Tumor Angiogenesis Using BMP Type I Receptor Macrocyclic Kinase Inhibitors” (Cancers, 2021)

Assays:
VEGF-induced pERK = experiment: Western blot of VEGF-induced ERK MAP kinase phosphorylation in HUVECs; type: cell-based, human; details: VEGF 40 ng/mL
Experimental: EA.hy926 cells or HUVECs were seeded in 6-well plates and starved in a serum-free medium for 4 h after reaching 80% confluence. The compounds were added 30 min prior to stimulation with the corresponding ligands. EA.hy926 cells were incubated with BMP9 (1 ng/mL), BMP6 (50 ng/mL), TGF-β2 (1 ng/mL), or vehicle control for 1 h. For HUVECs, after 4 h starvation, the cells were pre-treated with or without the indicated compounds for 30 min and subsequently stimulated with VEGF (40 ng/mL) for 10 min. The cells were harvested and lysed in radioimmunoprecipitation assay (RIPA) lysis buffer containing 1× complete protease inhibitor cocktail (11836153001, Roche, Basel, Switzerland). The protein concentration was determined using the DC protein assay kit (5000111, Bio-Rad). After adding loading buffer, the samples were boiled and proteins separated by sodium dodecyl sulfate polyacrylamide gel electrophoresis (SDS-PAGE). Proteins in the gel were transferred to polyvinylidene difluoride (PVDF) membranes (IPVH00010, Merck Millipore, Burlington, MA, USA) and immunoblotted with 1000 times diluted primary antibodies: phospho-SMAD1/5 (9516 S, Cell Signaling Technology, Leiden, The Netherlands), phospho-SMAD2 (pSMAD2, home-made), SMAD1 (6944 S, Cell Signaling Technology), SMAD2 (3103 S, Cell Signaling Technology), phospho-extracellular signal-regulated kinase/mitogen-activated protein kinase (pERK/MAPK, 4370, Cell Signaling Technology), mitogen-activated protein kinase/ERK1/2 (ERK1/2/MAPK, 9102 S, Cell Signaling Techonol), VEGFR (2479, Cell Signaling), pVEGFR (2478, Cell Signaling Technology), α/β-Tubulin (2148, Cell Signaling Technology), glyceraldehyde 3-phosphate dehydrogenase (GAPDH, MAB374, Merck Millipore). Clarity™ enhanced chemiluminescence (ECL) reagent (1705060, Bio-Rad) was used to visualize secondary antibodies conjugated to horseradish peroxidase (HRP). GAPDH or Tubulin was used as protein loading controls. […] The protein bands were quantified using ImageJ (National Institutes of Health, Bethesda, MD, USA).

[1] = test system: constitutively active ALK1 (caALK1); experiment: caALK1-induced BRE-Luc reporter activity in C2C12 cells; type: cell-based; details: for inhibition of caALK1 compared to caALK2 (BRE-Luc): C2C12 cells
From the text: To further investigate and validate the selective inhibitory effects of OD16 and OD29 toward BMP9/ALK1 and BMP6/ALK2 signaling, we transfected C2C12 myoblast cells with constitutively active mutant ALK1 and ALK2 (caALK1 and caALK2). These constitutively active receptors signal in the absence of exogenous ligands and allow for a more direct assessment of inhibitory effects that are elicited by kinase receptor inhibitors. […]
Figure S4. OD29 and OD16 are two small molecule BMP type I receptors kinase inhibitors in C2C12 cells. Effects of vehicle control (DMSO), LDN−193189, OD16 or OD29 on BRE transcriptional luciferase reporter activity induced by the ectopic expression of caALK1 (A) or caALK2 (B) in C2C12 cells. Cells were incubated with the inhibitors in three different con-centrations (0.1 μM, 0.5 μM or 1 μM) for 16 hours. Representative results from three biologically independent experiments are shown as mean ± SD. NS, not significant; * p < 0.05, ** p < 0.005; *** p < 0.001.

EA.hy926 cells = experiment: MTS assay; type: cell-based, human; details: 0.5 μM, day 1, 2 and 3
Experimental: The MTS assay was used to measure the metabolic activity and viability of the cells. Around 5 × 10^3 EA.hy926 cells were seeded and cultured overnight in a 96-well plate and then cultured in the normal growth medium, which contained the indicated compounds and ligands. The MTS tetrazolium was measured according to the manufacturer’s protocol using an MTS Assay Kit (G3580, Promega). In brief, after exposing the cells in set conditions for 1, 2, and 3 days, 20 µL of MTS reagent was added to 100 μL cell growth medium per well and incubated for 4 h at 37 °C. Thereafter, absorbance at 490 nm was measured using a PerkinElmer […]. All the experiments were repeated at least three times, and representative experiments are shown.

SIK2 = biological target: T1, SIK2 (Homo sapiens, UniProt Q9H0K1); experiment: radiometric kinase profiling (33 PanQinase); type: biochemical; details: read-out: Inhibitory effect (%) SIK2
T1 construct: purchased ProQinase (33PanQinase Activity Assay)
Method in brief: (§1)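 Enzyme/substrate mixes were incubated with [γ-33P]-ATP and compound (added as a 0.1 μM solution in 10% DMSO) at 30 °C for 60 min, then stopped with H3PO4 and washed with NaCl. 33P incorporation was scintillation-counted, and residual activity (%) was normalized to untreated control and background.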

MAP4K5 = biological target: T2, MAP4K5 (Homo sapiens, UniProt Q9Y4K4); experiment: radiometric kinase profiling (33 PanQinase); type: biochemical; details: read-out: Inhibitory effect (%) MAP4K5
T2 construct: purchased ProQinase (33PanQinase Activity Assay)
Method in brief: as §1

FGFR3 = biological target: T3, FGFR3 (Homo sapiens, UniProt P22607); experiment: radiometric kinase profiling (33 PanQinase); type: biochemical; details: read-out: Inhibitory effect (%) FGFR3
T3 construct: purchased ProQinase (33PanQinase Activity Assay)
Method in brief: as §1

MAP4K4 = biological target: T4, MAP4K4 (Homo sapiens, UniProt O95819); experiment: radiometric kinase profiling (33 PanQinase); type: biochemical; details: read-out: Inhibitory effect (%) MAP4K4
T4 construct: purchased ProQinase (33PanQinase Activity Assay)
Method in brief: as §1

FLT3 = biological target: T5, FLT3 (Homo sapiens, UniProt P36888); experiment: radiometric kinase profiling (33 PanQinase); type: biochemical; details: read-out: Inhibitory effect (%) FLT3
T5 construct: purchased ProQinase (33PanQinase Activity Assay)
Method in brief: as §1

BRAF = biological target: T6, BRAF (Homo sapiens, UniProt P15056); experiment: radiometric kinase profiling (33 PanQinase); type: biochemical; details: read-out: Inhibitory effect (%) BRAF
T6 construct: purchased Proqinase, Germany
Method in brief: as §1

T6 sequence (P15056 whole entry): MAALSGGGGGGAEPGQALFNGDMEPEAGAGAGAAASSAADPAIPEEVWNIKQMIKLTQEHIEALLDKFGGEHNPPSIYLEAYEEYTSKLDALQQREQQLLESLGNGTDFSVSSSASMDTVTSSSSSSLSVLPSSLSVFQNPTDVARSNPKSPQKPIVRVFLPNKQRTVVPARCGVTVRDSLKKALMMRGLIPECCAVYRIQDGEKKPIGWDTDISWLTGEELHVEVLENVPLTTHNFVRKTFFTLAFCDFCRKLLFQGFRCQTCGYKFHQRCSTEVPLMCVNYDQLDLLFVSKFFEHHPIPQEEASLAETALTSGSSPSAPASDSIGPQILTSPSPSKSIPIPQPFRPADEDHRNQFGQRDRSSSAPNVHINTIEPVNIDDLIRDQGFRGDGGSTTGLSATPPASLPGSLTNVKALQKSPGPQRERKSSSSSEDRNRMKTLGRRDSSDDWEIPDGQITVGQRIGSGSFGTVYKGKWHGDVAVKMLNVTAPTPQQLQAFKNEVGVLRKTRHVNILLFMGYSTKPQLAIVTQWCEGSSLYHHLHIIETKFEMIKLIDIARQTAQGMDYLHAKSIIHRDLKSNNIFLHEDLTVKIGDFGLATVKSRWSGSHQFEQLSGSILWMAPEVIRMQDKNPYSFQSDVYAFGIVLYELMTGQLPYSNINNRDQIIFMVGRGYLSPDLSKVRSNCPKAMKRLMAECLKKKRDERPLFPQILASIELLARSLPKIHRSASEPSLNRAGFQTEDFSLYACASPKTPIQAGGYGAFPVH
T2 sequence (Q9Y4K4 whole entry): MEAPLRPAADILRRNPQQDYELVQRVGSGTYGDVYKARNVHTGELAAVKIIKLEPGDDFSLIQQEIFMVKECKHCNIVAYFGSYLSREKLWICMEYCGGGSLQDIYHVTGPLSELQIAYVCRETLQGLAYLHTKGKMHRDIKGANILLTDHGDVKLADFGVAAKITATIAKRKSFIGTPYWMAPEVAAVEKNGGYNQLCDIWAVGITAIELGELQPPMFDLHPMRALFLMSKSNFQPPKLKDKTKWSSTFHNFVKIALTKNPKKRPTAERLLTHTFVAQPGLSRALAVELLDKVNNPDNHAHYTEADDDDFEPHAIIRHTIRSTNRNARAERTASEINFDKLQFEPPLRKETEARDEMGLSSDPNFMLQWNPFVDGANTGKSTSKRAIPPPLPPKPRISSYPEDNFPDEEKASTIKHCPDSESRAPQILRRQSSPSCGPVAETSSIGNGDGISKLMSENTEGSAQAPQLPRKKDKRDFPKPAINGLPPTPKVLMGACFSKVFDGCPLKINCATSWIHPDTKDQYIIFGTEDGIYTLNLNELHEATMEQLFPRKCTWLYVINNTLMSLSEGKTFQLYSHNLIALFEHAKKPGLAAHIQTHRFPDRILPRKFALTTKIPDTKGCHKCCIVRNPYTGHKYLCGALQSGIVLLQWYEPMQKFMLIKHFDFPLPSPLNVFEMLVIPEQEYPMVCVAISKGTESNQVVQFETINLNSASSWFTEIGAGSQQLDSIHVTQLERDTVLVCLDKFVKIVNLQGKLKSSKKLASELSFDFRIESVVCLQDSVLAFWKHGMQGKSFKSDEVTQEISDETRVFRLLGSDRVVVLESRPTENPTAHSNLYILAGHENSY
T5 sequence (P36888 27-993): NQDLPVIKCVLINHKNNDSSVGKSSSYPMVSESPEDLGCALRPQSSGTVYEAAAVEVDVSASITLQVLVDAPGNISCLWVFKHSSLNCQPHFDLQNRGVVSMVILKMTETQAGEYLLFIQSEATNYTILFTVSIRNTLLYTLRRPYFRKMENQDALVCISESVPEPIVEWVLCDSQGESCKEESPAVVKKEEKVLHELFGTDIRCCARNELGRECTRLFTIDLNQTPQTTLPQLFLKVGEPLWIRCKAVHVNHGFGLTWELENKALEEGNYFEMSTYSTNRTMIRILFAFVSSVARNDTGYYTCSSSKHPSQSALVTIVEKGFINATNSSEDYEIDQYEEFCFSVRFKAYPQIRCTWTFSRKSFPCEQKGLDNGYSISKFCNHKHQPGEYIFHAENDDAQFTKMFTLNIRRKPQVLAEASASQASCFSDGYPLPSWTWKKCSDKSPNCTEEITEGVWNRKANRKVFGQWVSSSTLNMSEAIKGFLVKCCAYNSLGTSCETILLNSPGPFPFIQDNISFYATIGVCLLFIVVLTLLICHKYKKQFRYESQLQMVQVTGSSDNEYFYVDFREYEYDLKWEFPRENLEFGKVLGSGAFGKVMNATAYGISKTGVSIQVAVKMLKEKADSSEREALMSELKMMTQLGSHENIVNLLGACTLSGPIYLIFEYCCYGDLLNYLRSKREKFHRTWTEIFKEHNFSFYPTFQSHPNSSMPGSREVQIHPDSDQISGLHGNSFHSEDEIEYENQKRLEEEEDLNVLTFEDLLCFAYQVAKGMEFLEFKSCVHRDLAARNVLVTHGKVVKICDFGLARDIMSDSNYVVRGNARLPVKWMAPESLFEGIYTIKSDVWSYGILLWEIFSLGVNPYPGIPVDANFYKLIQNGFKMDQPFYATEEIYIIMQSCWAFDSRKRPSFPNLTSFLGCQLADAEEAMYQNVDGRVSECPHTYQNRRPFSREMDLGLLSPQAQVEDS
T3 sequence (P22607 23-806): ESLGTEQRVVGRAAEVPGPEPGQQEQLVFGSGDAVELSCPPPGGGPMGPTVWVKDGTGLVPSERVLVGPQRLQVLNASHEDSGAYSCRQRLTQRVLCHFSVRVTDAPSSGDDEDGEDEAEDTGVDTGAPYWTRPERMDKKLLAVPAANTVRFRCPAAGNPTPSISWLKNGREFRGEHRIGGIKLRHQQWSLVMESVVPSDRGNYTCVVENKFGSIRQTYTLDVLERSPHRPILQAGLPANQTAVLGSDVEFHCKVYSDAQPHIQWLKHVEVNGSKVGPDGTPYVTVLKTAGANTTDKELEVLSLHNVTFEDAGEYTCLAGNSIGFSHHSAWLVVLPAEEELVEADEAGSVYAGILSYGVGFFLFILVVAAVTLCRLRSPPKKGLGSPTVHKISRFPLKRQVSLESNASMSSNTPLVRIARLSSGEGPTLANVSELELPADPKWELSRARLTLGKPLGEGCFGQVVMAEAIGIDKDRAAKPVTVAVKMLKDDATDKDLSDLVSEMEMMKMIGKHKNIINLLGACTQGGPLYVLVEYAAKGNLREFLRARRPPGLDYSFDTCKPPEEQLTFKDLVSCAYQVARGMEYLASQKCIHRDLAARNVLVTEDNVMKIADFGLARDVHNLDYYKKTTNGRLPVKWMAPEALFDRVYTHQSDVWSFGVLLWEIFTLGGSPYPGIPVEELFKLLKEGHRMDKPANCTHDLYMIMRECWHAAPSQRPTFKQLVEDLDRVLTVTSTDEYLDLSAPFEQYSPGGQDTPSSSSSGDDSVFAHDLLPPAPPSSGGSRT
T1 sequence (Q9H0K1 whole entry): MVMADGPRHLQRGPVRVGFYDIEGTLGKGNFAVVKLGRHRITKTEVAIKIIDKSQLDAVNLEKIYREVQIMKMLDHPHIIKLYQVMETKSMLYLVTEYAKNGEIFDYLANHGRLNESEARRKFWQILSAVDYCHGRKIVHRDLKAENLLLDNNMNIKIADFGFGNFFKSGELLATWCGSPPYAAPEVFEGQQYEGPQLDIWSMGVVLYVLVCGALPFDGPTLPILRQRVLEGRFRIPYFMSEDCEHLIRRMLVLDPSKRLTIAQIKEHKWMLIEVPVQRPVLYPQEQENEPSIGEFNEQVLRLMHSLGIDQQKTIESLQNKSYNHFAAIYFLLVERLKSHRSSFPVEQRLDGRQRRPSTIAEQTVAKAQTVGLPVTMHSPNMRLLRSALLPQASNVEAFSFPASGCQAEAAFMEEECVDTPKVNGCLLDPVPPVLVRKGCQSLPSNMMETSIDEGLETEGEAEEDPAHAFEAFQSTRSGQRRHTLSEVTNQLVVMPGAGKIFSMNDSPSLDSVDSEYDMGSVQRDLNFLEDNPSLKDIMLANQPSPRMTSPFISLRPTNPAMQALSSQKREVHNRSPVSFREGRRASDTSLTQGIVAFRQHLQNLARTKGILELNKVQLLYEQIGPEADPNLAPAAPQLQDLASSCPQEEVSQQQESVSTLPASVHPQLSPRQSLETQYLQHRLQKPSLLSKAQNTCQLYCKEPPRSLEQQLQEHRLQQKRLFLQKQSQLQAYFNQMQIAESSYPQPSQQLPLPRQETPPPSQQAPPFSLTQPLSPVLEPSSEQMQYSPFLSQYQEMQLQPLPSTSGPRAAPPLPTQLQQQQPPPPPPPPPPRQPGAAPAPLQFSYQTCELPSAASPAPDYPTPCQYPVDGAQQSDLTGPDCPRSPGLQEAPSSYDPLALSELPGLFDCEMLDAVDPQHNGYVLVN

Row | Structure (SMILES) | effect on VEGF-induced pERK (VEGF-induced pERK) | inhibition of caALK1 compared to caALK2 (BRE-Luc) [1] | effect on EA.hy926 cell viability (MTS) (EA.hy926 cells) | inhibition at 0.1 µM (SIK2) | inhibition at 0.1 µM (MAP4K5) | inhibition at 0.1 µM (FGFR3) | inhibition at 0.1 µM (MAP4K4) | inhibition at 0.1 µM (FLT3) | inhibition at 0.1 µM (BRAF) | effect on caALK1-induced BRE-Luc reporter activity ([1]; C2C12 cells, 0.1, 0.5 or 1 μM, 16 hours)
1 | CN1CCC(=O)NCCNc2ccn3ncc(c3n2)-c2cccc(c2)C1 [OD29] | profoundly decreased | higher sensitivity and more inhibitory potential against caALK1 compared to caALK2 | no significant effects | 1.13% | 19.1% | 49.5% | 13.5% | -4.23% | 5.1% | 
2 | c1ccc2c(-c3cnn4cc(-c5ccc(N6CCNCC6)cc5)cnc34)ccnc2c1 [LDN-193189, reference compound] |  | No difference in inhibition between ALK1 and ALK2 | markedly attenuated |  |  |  |  |  |  | in a dose-dependent manner attenuated
3 | CNC(=O)c1ccccc1Sc1ccc2c(/C=C/c3ccccn3)n[nH]c2c1 [Axitinib, reference compound] | blocked |  | no significant effects |  |  |  |  |  |  | 
4 | CN1CCc2cccc(c2)Nc2nccc(n2)N2CCCc3cc(ccc32)C1 [OD16] | failed to alter | higher sensitivity and more inhibitory potential against caALK1 compared to caALK2 | no significant effects | 43.8% | 14.6% | 14.8% | -0.07% | 4.56% | 5.01% | 
